The text below walks through data of ChEMBL document CHEMBL1201862, “PubChem BioAssay data set” (2004).

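These data come from cells grown in 96-well plates and exposed to compound for 48 hours at five concentrations. GI50 is the concentration that inhibits growth by half.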 Active and inactive are the calls of the source. No stated cut-off is given here; in the data, active = GI50 up to about 1.1 µM and inactive = higher. Where only a bound is given, the exact number is not on record here.

Test systems include MOLT-4; HT-29; OVCAR-3; UACC-257; SF-295; NCI-H522; NCI-H460; UO-31; 786-0; HOP-92; LOX IMVI; M14; HL-60; EKVX; U-251; KM12; HCT-15.
Holding throughout (test): DTP human tumour cell line panel, 48 h

As for `CCc1cccc(C)c1NC(=O)C1=C(C)NC(C)=C(C(=O)Nc2c(C)cccc2CC)C1c1ccc([N+](=O)[O-])cc1`, the GI50 in the assay with MOLT-4 is 11.6 µM (inactive); with HT-29, 44.5 µM (inactive); with OVCAR-3 it was 44.9 µM (inactive); with UACC-257, 41.8 µM (inactive); in the assay with SF-295, 58.7 µM (inactive); in the assay with NCI-H522, 15.5 µM (inactive). For the same compound, the GI50 with NCI-H460 was 28.6 µM (inactive); in the assay on UO-31 it was 16.3 µM (inactive); in the assay with 786-0, 72.8 µM (inactive); with HOP-92, 2.75 µM (inactive); in the assay on LOX IMVI, 40.9 µM (inactive); in the assay with M14 it was 34.8 µM (inactive). The GI50 with HL-60 is 17.9 µM (inactive); with EKVX it was 27.8 µM (inactive); with U-251, 60 µM (inactive); with KM12, 49.9 µM (inactive).

Regarding `Cc1ccc(NC(=O)CC/C(CC(=O)C(C)(C)C)=N\Nc2ccc([N+](=O)[O-])cc2[N+](=O)[O-])cc1C`, the GI50 is 28.8 µM (inactive) in the assay on MOLT-4; 41.5 µM in the assay on HCT-15; 57 µM (inactive) with HT-29; 0.0195 µM (active) with OVCAR-3; > 100 µM (inactive) in the assay with UACC-257; 32.6 µM (inactive) in the assay on SF-295. Also, the GI50 in the assay on NCI-H460 is 56.8 µM (inactive); with UO-31, 53.2 µM (inactive); with 786-0, 79.6 µM (inactive); in the assay on HOP-92 it was 27 µM (inactive); with LOX IMVI, 31.6 µM (inactive); in the assay with M14 it was 0.0129 µM (active). The GI50 in the assay on HL-60 is > 10 µM (inactive); with EKVX it was > 100 µM (inactive); with U-251, 58.1 µM (inactive); in the assay with KM12 it was 67.5 µM (inactive).

For the compound `COc1cc(C2C(Cl)C(=O)N2NC(=O)Cc2ccccc2)ccc1O` (configuration not stated), the GI50 with MOLT-4 was 24.6 µM (inactive); in the assay with HCT-15 it was greater than 100 µM; in the assay with HT-29, 73.3 µM (inactive); in the assay with OVCAR-3 it was 33.3 µM (inactive); with UACC-257, > 100 µM (inactive); in the assay on SF-295, > 100 µM (inactive). Also, the GI50 is 21.3 µM (inactive) with NCI-H522; > 100 µM (inactive) with NCI-H460; 22.6 µM (inactive) with UO-31; 83.2 µM (inactive) with 786-0; 77.4 µM (inactive) with LOX IMVI; > 100 µM (inactive) in the assay with M14. Further, the GI50 in the assay on HL-60 is 28.1 µM (inactive); with EKVX, > 100 µM (inactive); with U-251, 79.3 µM (inactive); with KM12, 91 µM (inactive).

Consider `N#CC(c1ccccn1)c1nc2ccccc2[nH]1` (configuration not stated), for which the GI50 was 47.5 µM (inactive) in the assay on MOLT-4; > 100 µM (inactive) in the assay with HT-29; > 100 µM (inactive) with OVCAR-3; > 100 µM (inactive) in the assay with UACC-257; > 100 µM (inactive) in the assay with SF-295; > 100 µM (inactive) in the assay on NCI-H522. In addition, the GI50 in the assay with NCI-H460 was 85.5 µM (inactive); in the assay with UO-31, > 100 µM (inactive); in the assay on 786-0, 97.5 µM (inactive); with M14, > 100 µM (inactive); in the assay with HL-60 it was 32.3 µM (inactive); with EKVX it was > 100 µM (inactive). Moreover, the GI50 in the assay on U-251 was > 100 µM (inactive).

Consider `OCC(O)C(OC1OC(CO)C(O)C(O)C1O)c1nn(-c2ccc(F)cc2)c2nc3cc(Cl)c(Cl)cc3cc12` (configuration not stated), for which the GI50 was > 100 µM (inactive) in the assay with MOLT-4; greater than 100 µM in the assay with HCT-15; > 100 µM (inactive) with HT-29; > 100 µM (inactive) in the assay with OVCAR-3; > 100 µM (inactive) in the assay with UACC-257; > 100 µM (inactive) in the assay with SF-295. In addition, the GI50 in the assay on NCI-H522, with NCI-H460, in the assay with UO-31, in the assay on 786-0, with LOX IMVI and in the assay with M14 was > 100 µM (inactive) throughout. Moreover, the GI50 in the assay on EKVX, in the assay on U-251 and in the assay on KM12 was > 100 µM (inactive) in each case.

As to `COc1ccc2[nH]c3c4c(c5cc(C(C)(C)C)ccc5c3c2c1)C(=O)N(c1ccccc1)C4=O`, the GI50 in the assay with MOLT-4, in the assay with HT-29, in the assay with OVCAR-3, in the assay on UACC-257, with SF-295 and with NCI-H522 was > 100 µM (inactive) in each case. The GI50 is > 100 µM (inactive) with NCI-H460; > 100 µM (inactive) in the assay on UO-31; > 100 µM (inactive) in the assay with 786-0; > 100 µM (inactive) in the assay on LOX IMVI; 54.3 µM (inactive) with M14; > 100 µM (inactive) in the assay on HL-60. Further, the GI50 was > 100 µM (inactive) in the assay on EKVX, 27.7 µM (inactive) in the assay on U-251 and > 100 µM (inactive) in the assay with KM12.

For `O=C(/N=C(\Nc1ccccc1)SCCS/C(=N/C(=O)c1cccs1)Nc1ccccc1)c1cccs1`, the GI50 was 24 µM (inactive) in the assay on MOLT-4; 44.6 µM in the assay with HCT-15; 33.3 µM (inactive) in the assay on HT-29; 54 µM (inactive) with OVCAR-3; 33 µM (inactive) with UACC-257; 52.7 µM (inactive) with SF-295. Moreover, the GI50 with NCI-H522 was 20.9 µM (inactive); in the assay on NCI-H460, 31.6 µM (inactive); in the assay with UO-31, 31.7 µM (inactive); with 786-0 it was 61.4 µM (inactive); in the assay on HOP-92 it was 6.37 µM (inactive); with LOX IMVI, 36.3 µM (inactive). Also, the GI50 with M14 is 55.8 µM (inactive); with EKVX, 92.5 µM (inactive); with U-251, 96.6 µM (inactive); in the assay on KM12, 41 µM (inactive).

With `COc1ccc(/C=N/N=C(\N)NO)c(Cl)c1O`, the GI50 in the assay on MOLT-4 is 3.43 µM (inactive); with HCT-15, 5.46 µM; in the assay on OVCAR-3, 4.69 µM (inactive); in the assay on UACC-257 it was 20.2 µM (inactive); in the assay on SF-295, 4.9 µM (inactive); in the assay with NCI-H522, 6.82 µM (inactive). Moreover, the GI50 in the assay on UO-31 was 11.2 µM (inactive); in the assay on 786-0 it was 18.4 µM (inactive); with HOP-92, 35.2 µM (inactive); in the assay on LOX IMVI, 3.1 µM (inactive); in the assay with EKVX, 10 µM (inactive); in the assay on U-251, 26.8 µM (inactive). Further, the GI50 with KM12 was 12.5 µM (inactive).

Regarding `Cc1ccccc1NC(=O)/C=N/O`, the GI50 is > 100 µM (inactive) with MOLT-4; greater than 100 µM in the assay with HCT-15; > 100 µM (inactive) in the assay on HT-29; > 100 µM (inactive) with OVCAR-3; > 100 µM (inactive) with UACC-257; > 100 µM (inactive) with SF-295. Besides, the GI50 with NCI-H522 is > 100 µM (inactive); with UO-31, > 100 µM (inactive); with 786-0, > 100 µM (inactive); in the assay on LOX IMVI, > 100 µM (inactive); with M14 it was > 100 µM (inactive); in the assay on HL-60 it was 0.429 µM (active). Besides, the figures for the GI50 in the assay with EKVX, in the assay with U-251 and in the assay with KM12 were 22 µM (inactive), > 100 µM (inactive) and > 100 µM (inactive), respectively.

`COC(c1ccccc1)C(c1ccccc1)N1CCOCC1` (configuration not stated): the GI50 with MOLT-4, in the assay on HT-29, with OVCAR-3, in the assay on UACC-257, in the assay on SF-295 and in the assay on NCI-H522 was > 100 µM (inactive) each time. The GI50 in the assay with NCI-H460, with UO-31, in the assay on 786-0, in the assay on HOP-92, in the assay with LOX IMVI and in the assay on M14 was > 100 µM (inactive) in each case. The GI50 with HL-60 is 89.5 µM (inactive); in the assay on EKVX, > 100 µM (inactive); in the assay with U-251, > 100 µM (inactive); in the assay with KM12 it was > 100 µM (inactive).

In the case of `O=C(N/C(=C\c1ccc([N+](=O)[O-])cc1)c1nc2cc(Cl)ccc2[nH]1)c1ccccc1`, the GI50 was 10.1 µM (inactive) in the assay on MOLT-4; 13.3 µM in the assay with HCT-15; 20.3 µM (inactive) in the assay with HT-29; 21.8 µM (inactive) with OVCAR-3; 23.8 µM (inactive) with SF-295; 11.9 µM (inactive) with NCI-H522. The GI50 in the assay on UO-31 is 13.9 µM (inactive); with 786-0, 17.7 µM (inactive); in the assay on HOP-92, 14 µM (inactive); in the assay with M14, 17.3 µM (inactive); with HL-60 it was 17.2 µM (inactive); in the assay on EKVX, 29.4 µM (inactive). Besides, the results for the GI50 in the assay with U-251 and with KM12 were 15.5 µM (inactive) and 21.1 µM (inactive), respectively.

For the compound `CCNC(=O)COc1ccc(Cl)cc1Cl`, the GI50 with MOLT-4 is > 100 µM (inactive); in the assay on HCT-15, greater than 100 µM; with HT-29 it was > 100 µM (inactive); with OVCAR-3, > 100 µM (inactive); in the assay on UACC-257 it was > 100 µM (inactive); with SF-295, > 100 µM (inactive). The GI50 with NCI-H522, in the assay with NCI-H460, in the assay on UO-31, with 786-0, with HOP-92 and in the assay on M14 was > 100 µM (inactive) throughout. In addition, the GI50 was > 100 µM (inactive) in the assay with HL-60, 55.7 µM (inactive) with EKVX, > 100 µM (inactive) in the assay with U-251 and > 100 µM (inactive) in the assay on KM12.

As to `CC12CCC(=O)C[C@H]1CCC(OC=O)C2Br` (some centres not stated), the GI50 is > 100 µM (inactive) in the assay on MOLT-4; greater than 100 µM in the assay on HCT-15; > 100 µM (inactive) with HT-29; > 100 µM (inactive) in the assay on OVCAR-3; > 100 µM (inactive) in the assay with UACC-257; > 100 µM (inactive) in the assay with SF-295. The GI50 with NCI-H522, in the assay with NCI-H460, with UO-31, in the assay with 786-0, in the assay on HOP-92 and with LOX IMVI was > 100 µM (inactive) throughout. Besides, the GI50 in the assay with M14, with HL-60, in the assay with U-251 and in the assay with KM12 was > 100 µM (inactive) throughout.
